Measurements from patent US7884120B2, “2,4,5-trisubstituted imidazoles and their use as anti-microbial agents” (Lorus Therapeutics Inc., priority 2002, dated 2011).
Values after ≈ are worked out from the molar mass of the structure shown. Where two headings read alike, the source gives them in different places.

Assays:
MRSA-1B387 = assay: In vivo inhibition of MRSA, acute infection in immunosuppressed CB17-SCID mice; design: species or system Staphylococcus aureus; conditions: 5×10^6 MRSA-1B387 in 5% mucin, 50 mg/kg I.P. immediately and 3 hours after inoculation
Protocol: Triaryl-imidazole compounds were tested in vivo for antibacterial activity against MRSA in a model of acute infection using immunosuppressed mice. Suspensions of 400 μL containing 5×10^6 MRSA-1B387 bacteria in 5% mucin were injected into groups of 5-10 female, 8-14 weeks CB17-SCID mice. Under these conditions bacterial infection produced 80-100% lethality in less than 48 hours. Each group of inoculated mice was treated with 50 mg/kg of the respective compound intraperitoneally (I.P.) immediately and 3 hours after bacterial inoculation.

[1] = test system: Methicillin-Resistant Staphylococcus aureus (MRSA), CMRSA-1B; assay: MIC by sequential macrodilution (tube) broth method against MRSA; type: cell-based; design: key: (+): Positive visual bacterial growth; (−): Negative visual bacterial growth; conditions: 37° C. overnight
Protocol: (Nat. Committee for Clinical Laboratory Standards. Document M7-A5 2000, 20; 1-25). Bacterial suspensions containing 5×10^5 colony-forming units (CFU) were incubated with serial two-fold dilutions of each drug at 37° C. overnight, and growth was monitored visually. The range of MIC values among the triaryl-imidazole derivatives was 12.5-50 μg/ml.

[2] = test system: multi-drug resistant Staphylococcus aureus (CMRSA-1B); assay: Bactericidal effect against MRSA (CFU plating on TSA); type: cell-based; conditions: overnight with compound, plated on TSA, CFU count (FIG. 1)
Protocol: Serial dilutions of liquid cultures were incubated with the compounds at 37° C. overnight and then plated on Tryptic Soy Agar (TSA) plates. After incubation for 17 hours at 37° C., the number of live bacteria was calculated from the number of colonies grown per milliliter of culture and expressed as colony-forming units (CFU).

[3] = test system: Candida albicans (ATCC 24433); assay: In vitro anti-fungal activity, microdilution against Candida albicans; type: cell-based; conditions: for MIC: ATCC24433, C. albicans ATCC 24433
Protocol: A microdilution method was used to determine the anti-fungal activity of different test compounds against Candida albicans (ATCC 24433) at 25 μg/ml. RPMI-1640 broth is recommended as the medium of choice for susceptibility testing of C. albicans (NCCLS, 2002; Document M27-A2) and was used in this study. The broth was buffered to pH 7.0 and then sterilized using a 250 ml vacuum driven disposable 0.45 um filtration system.
C. albicans was sub-cultured from a −80° C. stock onto Sabouraud dextrose agar and incubated for 24-48 hrs at 37° C. The fungi inoculum was prepared by picking five colonies of ˜1 mm in diameter from 24-48 hr old cultures. The colonies were then suspended in 5 ml of sterile normal saline (8.5 g/L NaCl; 0.85% saline) diluted 1:50 and further diluted 1:20 with medium to obtain two-fold inoculum (1-5×10^3 cfu/ml). […] The microtitre plates were then sealed in plastic bags and incubated at 35° C. for 24-48 hrs in an ambient air incubator with shaking at 250 RPM.
Inhibition of visible growth of C. albicans in the microtitre plate wells was assessed by the unaided eye and confirmed by OD600 reading. […] The MIC values of compounds with significant activity are also included.

[4] = test system: S. aureus, MRSA 1A-218, 1A-318, 1B-374, 1B-315, 1B-185, 1B387 and MSSA ATCC-6538, ATCC-29213; assay: MIC by standard microdilution method against S. aureus (MRSA and MSSA strains); type: cell-based; conditions: Staphylococcus aureus
Protocol: (§1) A standard microdilution method (NCCLS, 2000; Document M7-A5) was used to determine the minimum inhibitory concentrations (MICs) against S. aureus, methicillin-resistant strains (MRSA); 1A-218, 1A-318, 1B-374, 1B-315, 1B-185, 1B387 (Simor et al. 1999 Can Commun Dis Rep; 25:105-108) and methicillin-sensitive strains (MSSA); ATCC-6538 and ATCC-29213. The MICs of some compounds were also determined against other Gram-positive bacteria: Enterococcus faecium (ATCC 51559), Enterococcus faecalis (ATCC-51299, ATCC-29212) and Staphylococcus epidermidis (ATCC-35983).
(§2) Mueller-Hinton broth (MHB) is recommended as the medium of choice for susceptibility testing of commonly isolated, rapidly growing aerobic organisms such as the Gram-positive bacteria included in this study. A “cation-adjusted Mueller-Hinton broth” (Ca-MHB) was prepared by first preparing standard MHB from a dehydrated base as recommended by the manufacturer.
(§3) Single colonies from fresh agar plates of the different bacterial cultures were sub-cultured overnight in 3 ml of Tryptic soy broth (TSB) at 37° C. with shaking at 250 RPM. After 18-20 hours of incubation, the absorbance at λ=600 nm (OD600) were determined for each culture and adjusted to a final OD600=0.1 (4.2×10^7 cfu/ml). Bacterial suspensions were then diluted 1:200 in sterile Ca-MHB for the in vitro susceptibility test, with each well of the microtitre plate containing approximately 2×10^5 cfu/ml.
(§4) Stock solutions of the different test compounds were prepared at concentrations of 1,280 μg/ml, 640 μg/ml, or 320 μg/ml in 50% DMSO (dimethyl sulfoxide). Serial two-fold dilutions were then prepared in 50% DMSO (the working concentrations were 1:10 of the stock concentrations in 100 μl culture suspensions). The filled microtitre plates were sealed in plastic bags and incubated at 35° C. for 24 hr in an ambient air incubator with shaking at 250 RPM. MIC values were determined as the lowest concentration where complete inhibition of the visible bacterial growth was observed by the unaided eye and confirmed by the measurement of the optical density (OD600).

MRSA 1B-387 = assay: In vivo anti-bacterial activity, ICR mice inoculated I.P. with MRSA, oral treatment; conditions: Staphylococcus aureus
Protocol: For in vivo studies, groups of 5-10 female ICR mice (6-7 weeks) were inoculated intraperitonially with 3-8×10^7 CFU MRSA 1B-387 per mouse in 400 μl of 5% mucin. The test compounds at concentrations of 50 or 100 mg/kg were administered orally immediately after the bacterial inoculation and again 3 hours later. The selected dosages were administered twice daily throughout the experiment. The efficacy of the treatment was evaluated by comparison of mortality between the experimental and control groups (Table 5).

[5] = test system: Enterococcus faecalis (ATCC-51299); assay: MIC by microdilution against Enterococcus faecalis ATCC-51299; type: cell-based; conditions: unit not given in Table 4 (Table 3, same method: μg/ml)
Protocol: as §1, §2, §3, §4

[6] = test system: Enterococcus faecium (ATCC-51559); assay: MIC by microdilution against Enterococcus faecium; type: cell-based; conditions: unit not given in Table 4 (Table 3, same method: μg/ml)
Protocol: as §1, §2, §3, §4

[7] = test system: Staphylococcus epidermidis (ATCC-35983); assay: MIC by microdilution against Staphylococcus epidermidis; type: cell-based; conditions: unit not given in Table 4 (Table 3, same method: μg/ml)
Protocol: as §1, §2, §3, §4

[8] = test system: Enterococcus faecalis (ATCC-29212); assay: MIC by microdilution against Enterococcus faecalis ATCC-29212; type: cell-based; conditions: unit not given in Table 4 (Table 3, same method: μg/ml)
Protocol: as §1, §2, §3, §4

[9] = ATCC24433, C. albicans ATCC 24433, compound 25 μg/ml, 24 h, read-out: Inhibition (%) after 24 h
[10] = ATCC24433, C. albicans ATCC 24433, compound 25 μg/ml, 48 h, read-out: Inhibition (%) after 48 h
[11] = against all 8 strains of S. aureus tested except where indicated, microdilution, Ca-MHB, 35° C., 24 hr, read-out: MIC
[12] = ATCC24433, 24 h, read-out: Inhibition (%) after 24 h
[13] = ATCC24433, 48 h, read-out: Inhibition (%) after 48 h

Row | Compound | inhibition at 25 µg/mL [3, 9] | inhibition at 25 µg/mL [3, 10] | MIC [4, 11] | responders at 100 mg/kg (MRSA 1B-387) | responders at 100 mg/kg (MRSA 1B-387; read-out: Survival %) | also measured
1 | O=C(O)c1ccc(-c2nc(-c3ccc(Sc4ccccc4)cc3)c(-c3ccccc3)[nH]2)cc1 [Compound 1] |  |  |  |  |  | Survival (%) (MRSA-1B387): 40%; visual bacterial growth ([1]; Conc. 3.12 μg/ml): +; visual bacterial growth ([1]; Conc. 6.25 μg/ml): +; visual bacterial growth ([1]; Conc. 12.50 μg/ml): −; visual bacterial growth ([1]; Conc. 25.00 μg/ml): −; visual bacterial growth ([1]; Conc. 50.00 μg/ml): −; visual bacterial growth ([1]; Conc. 100.00 μg/ml): −; bactericidal or bacteriostatic effect at the corresponding MIC [2]: bactericidal effect
2 | O=C(O)c1ccc(-c2nc(-c3ccc(Br)cc3)c(-c3ccccc3Br)[nH]2)cc1 [Compound 3] |  |  |  |  |  | Survival (%) (MRSA-1B387; 50 mg/kg): 15%; visual bacterial growth ([1]; Conc. 3.12 μg/ml): +; visual bacterial growth ([1]; Conc. 6.25 μg/ml): +; visual bacterial growth ([1]; Conc. 12.50 μg/ml): +; visual bacterial growth ([1]; Conc. 25.00 μg/ml): −; visual bacterial growth ([1]; Conc. 50.00 μg/ml): −; visual bacterial growth ([1]; Conc. 100.00 μg/ml): −; bactericidal or bacteriostatic effect at the corresponding MIC [2]: bacteriostatic effect
3 | O=C(O)c1ccc(-c2nc(-c3ccc(Br)cc3)c(-c3ccccc3Br)[nH]2)cc1 [Compound 4] |  |  |  |  |  | Survival (%) (MRSA-1B387; 50 mg/kg): 50%; visual bacterial growth ([1]; Conc. 3.12 μg/ml): +; visual bacterial growth ([1]; Conc. 6.25 μg/ml): +; visual bacterial growth ([1]; Conc. 12.50 μg/ml): +; visual bacterial growth ([1]; Conc. 25.00 μg/ml): +; visual bacterial growth ([1]; Conc. 50.00 μg/ml): −; visual bacterial growth ([1]; Conc. 100.00 μg/ml): −; bactericidal or bacteriostatic effect at the corresponding MIC [2]: bacteriostatic effect
4 | Cc1[nH]c2ccccc2c1-c1nc(-c2ccc(N(C)C)cc2)c(-c2ccc(N(C)C)cc2)[nH]1 [Compound 11] | 27% | 28% | 8 µg/mL (≈ 18.4 µM) | 0% | 0% | 
5 | Cc1[nH]c2ccccc2c1-c1nc(-c2ccc(Br)cc2)c(-c2ccc(Br)cc2)[nH]1 [Compound 13] | 0% | 0% | 2 to 4 µg/mL (≈ 3.94 to 7.89 µM) | 20% | 20% | MIC [5]: 32; MIC [6]: 32
6 | Clc1ccc(-c2[nH]c(-c3c[nH]c4ccc(Br)cc34)nc2-c2ccccc2)cc1 [Compound 32] | 93% | 100% | 8 µg/mL (≈ 17.8 µM) | 40% | 40% | MIC [3]: 8 µg/mL (≈ 17.8 µM)
7 | Cc1[nH]c2ccccc2c1-c1nc(-c2ccccc2)c(-c2ccc([N+](=O)[O-])cc2)[nH]1 [Compound 33] | 0% | 0% | 4 to 8 µg/mL (≈ 10.1 to 20.3 µM) | 0% | 0% | 
8 | O=[N+]([O-])c1ccc(-c2[nH]c(-c3c[nH]c4ccc(Br)cc34)nc2-c2ccccc2)cc1 [Compound 34] | 0% | 0% | > 128 µg/mL | 100% | 100% | 
9 | Cc1[nH]c2ccccc2c1-c1nc(-c2ccccc2)c(-c2ccc(F)cc2)[nH]1 [Compound 35] | 100% | 73% | 8 µg/mL (≈ 21.8 µM) | 4% | 40% | 
10 | Fc1ccc(-c2[nH]c(-c3c[nH]c4ccc(Br)cc34)nc2-c2ccccc2)cc1 [Compound 36] | 86% | 97% | 2 µg/mL (≈ 4.63 µM) | 80% | 80% | MIC [3]: 16 µg/mL (≈ 37 µM)
11 | Cc1[nH]c2ccccc2c1-c1nc(-c2ccccc2)c(-c2ccc(Br)cc2)[nH]1 [Compound 42] | 77% | 43% | 4 µg/mL (≈ 9.34 µM) | 0% | 0% | 
12 | Brc1ccc(-c2[nH]c(-c3c[nH]c4ccc(Br)cc34)nc2-c2ccccc2)cc1 [Compound 43] | 87% | 59% | 4 µg/mL (≈ 8.11 µM) | 80% | 80% | MIC [3]: 8 µg/mL (≈ 16.2 µM)
13 | Cc1[nH]c2ccccc2c1-c1nc2c3ccccc3c3ccccc3c2[nH]1 [Compound 44] |  |  |  | 60% | 60% | inhibition at 25 µg/mL [3, 12]: 0%; inhibition at 25 µg/mL [3, 13]: 0%; MIC ([4]; 24 h): 8 µg/mL (≈ 23 µM)
14 | c1ccc2c(-c3nc4c5ccccc5c5ccccc5c4[nH]3)c[nH]c2c1 [Compound 46] |  |  |  | 40% | 40% | inhibition at 25 µg/mL [3, 12]: 33%; inhibition at 25 µg/mL [3, 13]: 0%; MIC ([4]; 24 h): 4 µg/mL (≈ 12 µM)
15 | COC(=O)c1ccc2c(-c3nc(-c4ccccc4)c(-c4ccccc4)[nH]3)c[nH]c2c1 [Compound 83] | 0% | 0% | > 128 µg/mL | 20% | 20% | 
16 | CN[C@H](CC(C)C)C(=O)N[C@H]1C(=O)N[C@@H](CC(N)=O)C(=O)N[C@H]2C(=O)N[C@H]3C(=O)N[C@H](C(=O)N[C@H](C(=O)O)c4cc(O)cc(O)c4-c4cc3ccc4O)[C@H](O)c3ccc(c(Cl)c3)Oc3cc2cc(c3O[C@@H]2O[C@H](CO)[C@@H](O)[C@H](O)[C@H]2O[C@H]2C[C@](C)(N)[C@H](O)[C@H](C)O2)Oc2ccc(cc2Cl)[C@H]1O [Vancomycin, reference compound] |  |  |  |  |  | MIC [7]: 2; MIC [8]: 4; Survival (%) (MRSA-1B387): 100%; MIC [5]: 32; MIC [6]: >128
